According to US7645740B2, “Peptide sequence found in Laminin 5 for treating skin impairments” (Laboratoires d'Anjou Centre National de la Recherche …, priority 2004, dated 2010):

Legend:
[1] = test system: A431 cells (skin epitheloids); assay: Cell adhesion test to immobilized peptides, A431; format: cell-based
Procedure: Dose-dependent cell adhesion of cell line A431 to various peptides 1, 2 and 3. The peptides were immobilized in 96-well plates at the concentrations given on the abscissa. 8×10^4 cells were deposited in each well and plates were incubated at 37° C. for 1 hour. After washing, attached cells were fixed and cell adhesion was measured as described in the methodology section.
Peptides 1, 2 and 3 were used for the cell adhesion experiments. A range of 7 decreasing concentrations (100 micrograms/ml, 50 micrograms/ml, 25 micrograms/ml, 12.5 micrograms/ml, 6.25 micrograms/ml, 3.125 micrograms/ml and 1.562 micrograms/ml) was made up by successive dilution in PBS (Phosphate Buffer Saline, KH2PO4 1.54 mM; Na2HPO4 1.42 mM; NaCl-131 mM) using a starting solution at a concentration of 1 mg/ml. These solutions were immediately distributed onto a 96-well culture plate (Greinher, Dutscher, Brumath, France) at a rate of 100 μl per well. Plates were then placed at +4° C. for 16 to 18 hours. The solutions were then removed by turning the plates and each well was saturated with a 1% PBS-BSA solution (bovine serum albumin). Three additional wells without the substrate underwent the same treatment and were used as blanks.
Epithelial cells were detached from the culture dishes using a trypsin/EDAT solution (0.05-0.02%) then suspended in DMEM medium without additives for the cell lines and in KBM-2 without additive for human keratinocytes. The number of seeded cells per well is given in the graphs (50,000 to 100,000 cells per well).
After cell seeding, the multi-well plates were placed in an incubator at 37° C. under 5% CO2. After incubation for 30 to 60 minutes, cells were observed under a phase contrast microscope in order to verify that the test was conducted correctly. The adhesion medium was then removed and each well was washed in a sterile PBS solution to remove non-adhering cells. The remaining cells, attached to the substrate, were then fixed using a solution of 1% glutaraldehyde in PBS for 15 minutes. The glutaraldehyde solution as removed and the cells were stained with a crystal violet solution diluted to 1% in distilled water for 30 minutes.
After rinsing in water several times, cells were permeabilized by means of a 0.02% triton solution for 15 minutes in order to solubilize the crystal violet. Absorbances were read at 570 nm using an ELISA plate reader (MR500, Dynatech, Guernsey, Channel Islands). Each experimental point was carried out in triplicate. The blank value represented the mean absorbance of 3 control wells (BSA). This was subtracted from each of the optical density values for the experimental points. We then calculated the mean for the three absorbance values for each of the triplicate samples.
The results are presented in the form of a graph with the absorbance values on the ordinate and the various substrate concentrations on the abscissa. Attached cells were photographed by phase contrast microscopy.
The following cells from epithelial cell lines were used initially (commonly used in preliminary studies on cell adhesion): • line HT1080 cells (human fibrosarcoma), American Type Culture Collection CCL-121. • line HB100 cells (human mammary epithelium), American Type Culture Collection HTB-124. • line A431 cells (skin epitheliods), American Type Culture Collection CRL-1555.

NHKs [2] = assay: Effect of the peptide in soluble form on keratinocyte behaviour in culture; format: cell-based, human
Procedure: NHKs were seeded in 12-well plates at a rate of 5,000 cells per well. After 24 hours, the culture medium was removed and replaced with new medium containing 5%, 2.5%, 1.25%, 0.6% and 0.3% peptide (B—F). A peptide-free control was carried. The plates were then placed in the incubator at 37° C. for 48 hours. Observations were made with an Axiovert 40 Zeiss microscope. Bar=50 μm
Observation at higher magnification of the cell colonies described in FIG. 6 using an Axiovert 40 Zeiss microscope equipped with a PlasDisc interferential block. Bar=50 μm
Keratinocytes were seeded in 12-well plates (Costar) at a rate of 5,000 cells per well in KBM-2 medium. After 24 hours in culture at 37° C. with 5% CO2, the culture medium was removed and replaced with KBM-2 medium containing the peptide quantities given in the figures (a peptide-free control was also carried out). After 24 hours in culture, the same quantity of peptide was added to the culture medium and the experiment was stopped after a further 24 hours in culture. Microscope analyse was carried out without preliminary fixation using an Axiovert 40 Zeiss microscope coupled to a Coolsnap camera (Roper Scientific, Evry, France).

NHKs [3] = assay: Cell adhesion of NHKs to peptide co-immobilized with collagen IV; format: cell-based, human; conditions: collagen IV fixed quantity 0.06 mg, 50,000 cells per well, percentage of COL4 alone
Procedure: Peptides 1, 2 and 3 (variable quantities indicated) and collagen IV (fixed quantity 0.06 mg) were co-immobilized in 96-well plates. 5×104 NHKs were deposited in each well and plates were incubated at 37° C. for 1 hour. After washing, attached cells were fixed and cell adhesion was measured as described in the methodology section. Cell adhesion in the presence of the peptide is given as a percentage of cell adhesion obtained with collagen IV alone. Cells were observed by phase contrast microscopy then photographed. Bar=50 μm.
A decreasing range of LN5 (prepared in the laboratory) and COL4 (BD Biosciences, Le Pont de Claix, France) quantities was made up by successive dilution in PBS. These solutions were immediately distributed into a 96-well culture plate (Costar) at a rate of 100 μl per well. The experiment was conducted in exactly the same way as the experiment described in example 2. The results are given in the form of a graph with the absorbance values representing adhesion on the ordinate and the various substrate concentrations on the abscissa. […]
In order to analyse the effect of the peptide on cell adhesion to DEJ proteins, peptide TALRIRATYGEY (SEQ ID NO.1) (peptide 1) was co-immobilized with LN5 (FIG. 14) and COL4 (FIG. 15). The fixed quantity of matrix protein (LN5 and COL4) and the variable quantity of peptide are given on the graph (FIGS. 14 and 15). […]

Question: For “TALRIRATYGEY (Human laminin 5) [Peptide 1]”, which “immobilized peptide quantity at which adhesion occurred” value ([1]; A431) is on record?
Answer: 0.62 micrograms

Question: And the “immobilized peptide quantity at which maximum adhesion was achieved” value ([1]; A431)?
Answer: 1.2 micrograms

Question: What about the “cell adhesion to immobilized peptide” value ([1]; A431, 0 to 10 micrograms immobilized peptide, 8×10^4 cells per well, 1 hour 37° C., absorbance 570 nm) of the same sequence?
Answer: led to cell adhesion

Question: And the “cell morphology vs control cells” value (NHKs [2]; NHKs cultured with the peptide, higher magnification (FIG. 12))?
Answer: no morphological difference

Question: What about the “effect of peptide added to culture medium on colony formation” value (NHKs [2]; NHKs, 5%, 2.5%, 1.25%, 0.6% and 0.3% peptide in medium, 48 hours, vs peptide-free control) of the same sequence?
Answer: faster formation of cohesive colonies

Question: And the “effect on adhesion of keratinocytes to COL4 (co-immobilized)” value (NHKs [3])?
Answer: no significant effect
